Test results from ChEMBL document CHEMBL1275268, “Computational analysis of ligand recognition sites of homo- and heteropentameric 5-HT3 receptors” (Eur J Med Chem, 2010).

Columns and labels:
[1] = Chemical stability of the compound assessed as half life; assay type: physicochemical
[2] = molecular target: T1, 5-hydroxytryptamine receptor 3A (Homo sapiens, UniProt P46098); assay: Binding affinity to 5HT3A receptor
T1 sequence (P46098 whole entry): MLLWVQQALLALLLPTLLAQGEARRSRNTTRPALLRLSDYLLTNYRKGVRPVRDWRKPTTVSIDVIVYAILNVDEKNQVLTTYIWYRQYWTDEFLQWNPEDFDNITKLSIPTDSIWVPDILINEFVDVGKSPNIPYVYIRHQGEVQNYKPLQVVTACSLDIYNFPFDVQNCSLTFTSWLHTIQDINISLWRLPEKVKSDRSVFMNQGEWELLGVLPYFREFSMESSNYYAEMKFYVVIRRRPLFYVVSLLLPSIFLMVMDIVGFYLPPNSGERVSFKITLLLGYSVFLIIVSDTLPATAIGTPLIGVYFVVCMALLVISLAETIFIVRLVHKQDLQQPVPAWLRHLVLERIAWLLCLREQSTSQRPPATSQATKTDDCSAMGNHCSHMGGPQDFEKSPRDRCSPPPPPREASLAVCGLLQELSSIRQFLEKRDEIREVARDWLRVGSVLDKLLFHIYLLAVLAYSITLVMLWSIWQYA

| half-life [1] [h] | Ki [2] [pM] | Compound |
| --- | --- | --- |
| 5 |  | CN1C2CCCC1CC(NC(=O)c1nn(C)c3ccccc13)C2 (stereo not drawn) [GRANISETRON] |
| 38 | 31.6 | O=C1c2cccc3c2[C@H](CCC3)CN1[C@@H]1CN2CCC1CC2 [PALONOSETRON] |
